Source: ChEMBL document CHEMBL1128903, “Atropisomeric carbamoyl type inhibitors of pancreatic cholesterol esterase” (Bioorg Med Chem Lett, 1996)
“And” between values parts separate entries of the source, which are not always exact repeats. Identical values can stand only once.

Legend:
[1] = target: T1, Bile salt-activated lipase (Bos taurus, UniProt P30122); test: Bimolecular rate constant (ki) for the Pancreatic cholesterol esterase-catalyzed hydrolysis of 4-nitrophenyl butyrate
T1 sequence (P30122 whole entry): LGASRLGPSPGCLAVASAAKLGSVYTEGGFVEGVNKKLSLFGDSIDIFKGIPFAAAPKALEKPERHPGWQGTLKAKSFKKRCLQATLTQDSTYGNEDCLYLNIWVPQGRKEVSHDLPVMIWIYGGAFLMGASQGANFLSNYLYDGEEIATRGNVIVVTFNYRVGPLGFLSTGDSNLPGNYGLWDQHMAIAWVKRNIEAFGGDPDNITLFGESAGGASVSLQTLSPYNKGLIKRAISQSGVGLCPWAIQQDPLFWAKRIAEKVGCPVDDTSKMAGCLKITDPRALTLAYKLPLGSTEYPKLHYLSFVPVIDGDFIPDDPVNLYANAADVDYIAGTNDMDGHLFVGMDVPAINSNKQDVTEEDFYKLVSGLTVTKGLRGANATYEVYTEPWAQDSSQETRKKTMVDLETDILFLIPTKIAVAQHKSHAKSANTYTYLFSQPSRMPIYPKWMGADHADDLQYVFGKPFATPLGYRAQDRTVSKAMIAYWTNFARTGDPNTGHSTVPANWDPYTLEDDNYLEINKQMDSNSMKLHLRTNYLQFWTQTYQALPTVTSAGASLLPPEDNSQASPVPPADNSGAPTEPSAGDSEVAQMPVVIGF

[2] = target: T2, Bile salt-activated lipase (Bos taurus) (UniProt P30122)
T2 sequence (whole entry): T1 sequence (P30122 whole entry)
Description: Carbamylation constant (k2) for the Pancreatic cholesterol esterase-catalyzed hydrolysis of 4-nitrophenyl butyrate

[3] = target: T1, Bile salt-activated lipase; test: Dissociation constant (KI) for the Pancreatic cholesterol esterase-catalyzed hydrolysis of 4-nitrophenyl butyrate

SMILES	Bimolecular rate constant (ki) [1]	k2 [2]	Ki [3]
CCCCNC(=O)Oc1ccc2ccccc2c1-c1c(O)ccc2ccccc12	12000 10e2 M-1 s-1 and 10000 10e2 M-1 s-1 and 5000 10e2 M-1 s-1	0.01 10e3 s-1 and 0.007 10e3 s-1 and 0.006 10e3 s-1	800 nM (2×) and 1.3 µM
CCCCNC(=O)Oc1ccc2ccccc2c1-c1c(OC(=O)NCCCC)ccc2ccccc12	–	0.00095 10e3 s-1 and 0.0016 10e3 s-1 and 0.0012 10e3 s-1	–
CCCCNC(=O)Oc1ccc2ccccc2c1-c1c(OC(=O)CCC)ccc2ccccc12	40 10e2 M-1 s-1 and 80 10e2 M-1 s-1 and 60 10e2 M-1 s-1	0.0008 10e3 s-1 and 0.0006 10e3 s-1 (2×)	20 µM and 9 µM and 10 µM
